Legend:
[1] = Human liver microsome in vitro metabolic stability assay; type: in vitro ADME; conditions: for Peak Area Ratio 0 min / Peak Area Ratio 15 min / Peak Area Ratio 30 min / Peak Area Ratio 60 min: human liver microsomes
Procedure: The compounds (10 μM) were incubated with pooled human liver microsomes in the presence and absence of the co-factor, β-Nicotinamide adenine dinucleotide phosphate (NADP^+), required for oxidative metabolism by the Cytochrome P-450 (CYP) and flavin containing monooxygenase (FMO) enzymes. A tandem liquid chromatography mass spectrometry (LC-MS/MS) method was developed and/or qualified for each compound for measuring relative stability of 6a, 6b, and 18 in the terminated reaction mixtures. The relative disappearance of the test compounds following 15, 30, and 60 min of incubation with liver microsomes, NADP^+, and an NADPH-regenerating system was determined in duplicate samples. 6a, 6b, and 18 stability following 0 and 60 min of incubation with liver microsomes in the absence of NADP^+ was also determined.
Samples for each test compound generated from the assay were analyzed as one batch by the qualified LC-MS/MS method. The sample batch consisted of the following: initial system check standards (three replicates), the assay samples (in duplicate) and the final system check standards (three replicates). A batch was considered acceptable if the system check injection acceptance criteria described above was met.
The study was conducted with cryopreserved human liver microsomes, pooled from 15 donors (mixed pool of male and female donors). Pooled donor microsomes were used in order to represent an “average” metabolic activity. The microsomes have been characterized by the supplier for Phase I (CYP1A2, CYP2A6, CYP2B6, CYP2C8, CYP2C9, CYP2C19, CYP2D6, CYP2E1, CYP3A4, CYP4A11 and FMO) and Phase II (UGT1A1, UGT1A4 and UGT1A9) enzymatic activity.
1. The assay was performed with 0.5 mg/mL human liver microsomes in 50 mM potassium phosphate buffer, pH 7.4 (PPB), and in the presence of an NADPH regenerating system (1.3 mM NADP^+, 3.3 mM glucose-6-phosphate, 0.4 U/mL glucose-6-phosphate dehydrogenase) and 3.3 mM MgCl2. All incubations were performed in duplicate. One concentration of test compound was tested (10 μM). 2. A stock solution of microsomes (20 mg/mL) was thawed in a 37° C. water bath on the day of the assay and then immediately placed on ice. The microsomes were then diluted with an appropriate volume of PPB, such that the final protein concentration in the assay was 0.5 mg/mL, and the final PPB concentration was 50 mM. 3. An appropriate aliquot of the 1 mM stock solution of the test compounds (in water) was added to the diluted microsomes, and then the mixture was warmed to 37° C. for 5 min in an incubator. […] These samples represent the time zero samples. 4. An aliquot (375 μL) of the pre-warmed liver microsomes and test compound mixture was dispensed into a well of a 24-well plate. A 125 μL aliquot of pre-warmed (37° C. for 5 min) 4-fold concentrated NADPH regenerating system solution was then added to start the reaction. Reaction mixtures (0.5 mL) were incubated in a shaking incubator (150 rpm) at 37° C. 5. One hundred μL of the reaction mixture was sampled following 15, 30, and 60 min of incubation. Each sample with test compound was immediately added to a chilled labeled centrifuge tube containing 100 μL of ice cold methanol to terminate the reaction. 6. All samples were mixed by vortex and then centrifuged (15,000×g for 10 min at 4° C.) to pellet the protein. An aliquot of the supernatant from each sample was then transferred to a clean, labeled centrifuge tube and stored at −70° C. until bioanalysis. 7. […] 8. As a control, test compound was incubated with microsomes in the absence of NADP^+. One hundred μL of the reaction mixture was sampled for control samples following 0 and 60 min of incubation as detailed above. 9. Data sheets with the date of the experiment, the Study No., the compound IDs, the sampling times, a plate map and any deviations to the protocol were recorded.
The mean of the test compound to the internal standard peak area ratios were calculated for the zero time sample.

[2] = molecular target: T1, Nitric oxide synthase (neuronal, human recombinant) nNOS (Homo sapiens, UniProt P29475); experiment: nNOS (human) enzyme assay, [3H]-L-arginine to L-citrulline; type: biochemical; conditions: for IC50: Table 10, human nNOS, read-out: nNOSh; for e/n: Table 10, ratio eNOS/nNOS
T1 construct: purchased Axxora LLC ALX-201-068
T1 sequence (P29475 whole entry): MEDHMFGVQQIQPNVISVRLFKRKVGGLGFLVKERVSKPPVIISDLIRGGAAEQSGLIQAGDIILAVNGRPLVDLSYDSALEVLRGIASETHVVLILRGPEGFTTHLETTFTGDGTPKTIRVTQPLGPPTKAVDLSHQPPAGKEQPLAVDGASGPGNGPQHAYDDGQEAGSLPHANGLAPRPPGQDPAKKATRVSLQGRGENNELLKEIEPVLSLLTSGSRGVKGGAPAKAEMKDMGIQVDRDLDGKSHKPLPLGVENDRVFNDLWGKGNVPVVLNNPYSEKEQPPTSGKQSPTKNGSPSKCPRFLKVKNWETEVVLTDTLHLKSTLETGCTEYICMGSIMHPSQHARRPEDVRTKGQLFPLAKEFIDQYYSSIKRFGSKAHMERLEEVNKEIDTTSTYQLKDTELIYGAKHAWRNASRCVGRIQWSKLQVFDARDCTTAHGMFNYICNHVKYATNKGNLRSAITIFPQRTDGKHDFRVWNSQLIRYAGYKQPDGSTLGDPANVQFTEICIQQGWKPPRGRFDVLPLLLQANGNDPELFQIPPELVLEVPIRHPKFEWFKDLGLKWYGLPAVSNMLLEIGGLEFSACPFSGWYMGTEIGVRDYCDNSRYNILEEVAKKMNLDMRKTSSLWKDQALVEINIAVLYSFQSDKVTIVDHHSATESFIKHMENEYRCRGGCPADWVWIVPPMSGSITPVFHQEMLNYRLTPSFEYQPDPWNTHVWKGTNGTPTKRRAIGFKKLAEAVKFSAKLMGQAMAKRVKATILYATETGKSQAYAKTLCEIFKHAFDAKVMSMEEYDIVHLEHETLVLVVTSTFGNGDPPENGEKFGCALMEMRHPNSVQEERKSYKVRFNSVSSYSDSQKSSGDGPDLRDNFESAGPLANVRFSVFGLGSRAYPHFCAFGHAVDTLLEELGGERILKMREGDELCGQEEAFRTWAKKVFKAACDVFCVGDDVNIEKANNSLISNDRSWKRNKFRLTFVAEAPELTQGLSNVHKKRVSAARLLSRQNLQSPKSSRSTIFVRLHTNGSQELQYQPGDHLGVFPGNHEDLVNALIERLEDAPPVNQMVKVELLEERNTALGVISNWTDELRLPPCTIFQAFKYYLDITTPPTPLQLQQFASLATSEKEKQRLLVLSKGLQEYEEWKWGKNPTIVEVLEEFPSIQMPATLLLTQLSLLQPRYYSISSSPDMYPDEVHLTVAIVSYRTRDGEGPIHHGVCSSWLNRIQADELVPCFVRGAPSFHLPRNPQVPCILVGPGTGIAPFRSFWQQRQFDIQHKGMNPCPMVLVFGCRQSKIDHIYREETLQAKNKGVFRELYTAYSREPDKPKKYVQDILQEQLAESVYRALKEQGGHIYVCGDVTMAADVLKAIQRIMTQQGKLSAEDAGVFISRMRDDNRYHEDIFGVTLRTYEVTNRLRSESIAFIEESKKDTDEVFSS
Procedure: nNOS (Human), eNOS (Human) Enzyme Assay
Human nNOS and eNOS Protocol:
Procedure for Human nNOS and eNOS
Primary stock solutions of test compounds at a concentration of 6 mM are prepared. The primary stock solutions of each test compound are prepared freshly in distilled water on the day of study. […] Concentration range of test compound utilized for nNOS are 0.001 to 300 μM and for eNOS are 0.003 to 1000 μM. The vehicle of the test compound or inhibitor is used as blank control.
(§1) All incubations are performed in duplicate:
(§2) Prepare the reaction mixture on ice by adding the following components with a micropipette to a polypropylene microcentrifuge tube:
Total reaction volume is 60 μL.
(§3) Mix using a vortex mixer and incubate the above reaction mixture at 37° C. in an incubator for 30 minutes.
(§4) Add 400 μL of ice-cold Stop Buffer at the end of the incubation period to stop the reaction. (The EDTA in the Stop Buffer chelates all of the available calcium.)
(§5) Mix using a vortex mixer and transfer the reaction samples to spin cups and centrifuge using a microcentrifuge, at 13,000 rpm for 30 sec. at room temperature.
(§6) Remove the spin cups from the holder and transfer 450 μL of eluate (containing the unbound L-citrulline) to scintillation vials. Add 3 mL of scintillation fluid and quantify the radioactivity in a liquid scintillation counter.
Calculation of IC50 Values:
(§7) Data is analyzed using a Sigmoidal dose-response (variable slope) curve to determine the IC50 value of the test compound. Y=Bottom+(Top−Bottom)/(1+10^((Log IC50−X)*Hill Slope))

5-HT1B = molecular target: T2, 5-HT1B (Rattus norvegicus, UniProt P28564); experiment: 5-HT1B binding assay (agonist radioligand), rat cerebral cortex; conditions: Table 11, rat 1B receptor binding
T2 construct: from tissue; host or cells: rat cerebral cortex
T2 sequence (P28564 whole entry): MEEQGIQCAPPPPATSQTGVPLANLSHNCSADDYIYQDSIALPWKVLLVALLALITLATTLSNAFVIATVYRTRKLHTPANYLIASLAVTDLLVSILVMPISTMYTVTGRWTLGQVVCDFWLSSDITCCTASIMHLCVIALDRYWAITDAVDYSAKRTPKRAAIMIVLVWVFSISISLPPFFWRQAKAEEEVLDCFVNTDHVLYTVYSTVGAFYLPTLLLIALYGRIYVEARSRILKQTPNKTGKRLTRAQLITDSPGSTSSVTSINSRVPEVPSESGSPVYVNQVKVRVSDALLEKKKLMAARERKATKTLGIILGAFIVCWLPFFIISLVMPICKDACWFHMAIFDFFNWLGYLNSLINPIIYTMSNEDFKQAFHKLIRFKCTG
Procedure: 5-HT1D binding assays (agonist radioligand) were performed using bovine caudate membranes according to the methods of Heuring and Peroutka (J. Neurosci., 7: 894-903 (1987)). 5-HT1B (rat cerebral cortex) binding assays (agonist radioligand) were performed according to the method of Hoyer et. al. (Eur. J. Pharmacol., 118: 1-12 (1995)). For the purpose of result analysis, the specific ligand binding to the receptors is defined as the difference between the total binding and the nonspecific binding as determined in the presence of an excess of unlabelled ligand. The results are expressed as a percent of control specific binding obtained in the presence of the test compounds. IC50 values (concentration causing a half-maximal inhibition of control specific binding) and Hill coefficients (nH) were determined by non-linear regression analysis of the competition curves using Hill equation curve fitting and the inhibition constants (Ki) were calculated from the Cheng Prusoff equation (Ki=IC50/(1+(L/KD)), where L=concentration of radioligand in the assay, and KD=affinity of the radioligand for the receptor).

[3] = molecular target: T3, Nitric oxide synthase (endothelial, human recombinant) eNOS (Homo sapiens, UniProt P29474); experiment: eNOS (human) enzyme assay, [3H]-L-arginine to L-citrulline; type: biochemical; conditions: Table 10, human eNOS; read-out: eNOSh
T3 construct: purchased Axxora LLC ALX-201-070
T3 sequence (P29474 whole entry): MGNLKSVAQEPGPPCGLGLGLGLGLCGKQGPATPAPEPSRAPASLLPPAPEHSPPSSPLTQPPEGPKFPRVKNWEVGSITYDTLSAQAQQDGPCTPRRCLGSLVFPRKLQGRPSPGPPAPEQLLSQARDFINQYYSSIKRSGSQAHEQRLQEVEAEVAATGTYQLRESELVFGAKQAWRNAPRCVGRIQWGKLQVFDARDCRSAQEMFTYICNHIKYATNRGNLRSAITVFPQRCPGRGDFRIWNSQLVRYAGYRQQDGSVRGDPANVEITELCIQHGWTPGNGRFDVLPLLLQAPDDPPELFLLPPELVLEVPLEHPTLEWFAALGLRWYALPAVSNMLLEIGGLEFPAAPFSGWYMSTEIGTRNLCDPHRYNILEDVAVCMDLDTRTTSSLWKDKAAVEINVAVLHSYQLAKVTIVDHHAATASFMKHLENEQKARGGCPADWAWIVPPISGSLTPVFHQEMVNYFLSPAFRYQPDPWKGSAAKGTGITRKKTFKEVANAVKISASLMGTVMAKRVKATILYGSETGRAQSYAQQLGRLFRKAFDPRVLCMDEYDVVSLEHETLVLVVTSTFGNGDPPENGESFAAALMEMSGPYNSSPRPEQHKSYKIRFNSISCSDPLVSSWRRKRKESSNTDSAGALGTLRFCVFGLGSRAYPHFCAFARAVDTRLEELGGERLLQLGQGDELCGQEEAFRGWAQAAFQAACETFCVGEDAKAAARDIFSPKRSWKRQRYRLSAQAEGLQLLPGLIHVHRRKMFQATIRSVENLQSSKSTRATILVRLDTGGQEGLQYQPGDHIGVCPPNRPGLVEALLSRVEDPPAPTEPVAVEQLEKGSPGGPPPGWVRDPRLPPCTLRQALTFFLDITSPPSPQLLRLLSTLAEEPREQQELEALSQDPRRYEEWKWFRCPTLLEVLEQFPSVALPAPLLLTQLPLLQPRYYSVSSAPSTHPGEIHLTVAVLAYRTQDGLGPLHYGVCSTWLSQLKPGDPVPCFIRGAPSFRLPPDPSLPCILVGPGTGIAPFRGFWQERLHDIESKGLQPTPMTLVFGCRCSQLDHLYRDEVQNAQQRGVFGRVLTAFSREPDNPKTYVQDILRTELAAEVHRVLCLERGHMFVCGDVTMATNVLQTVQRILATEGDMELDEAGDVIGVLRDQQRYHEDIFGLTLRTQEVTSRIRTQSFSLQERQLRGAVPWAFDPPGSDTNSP
Procedure: Human nNOS and eNOS Protocol:
Procedure for Human nNOS and eNOS
Primary stock solutions of test compounds at a concentration of 6 mM are prepared. The primary stock solutions of each test compound are prepared freshly in distilled water on the day of study. […] Concentration range of test compound utilized for nNOS are 0.001 to 300 μM and for eNOS are 0.003 to 1000 μM. The vehicle of the test compound or inhibitor is used as blank control. […] The IC50 concentration of L-NAME was run in parallel as a control.
as §1, §2
Start the reaction by addition of the substrate (in 5 µL containing 1 μCi of [^3H]-L-Arginine+2.5 μM of unlabeled L-Arginine) to the reaction mixture. Total reaction volume is 60 μL.
as §3, §4, §5, §6
Calculation of IC50 Values:
as §7

5-HT1D = 5-HT1D (Bos taurus, UniProt F1MMU1); experiment: 5-HT1D binding assay (agonist radioligand), bovine caudate membranes; conditions: Table 11, bovine 1D receptor binding; read-out: 5HT1D
Chain of 5-HT1D (F1MMU1 1-377): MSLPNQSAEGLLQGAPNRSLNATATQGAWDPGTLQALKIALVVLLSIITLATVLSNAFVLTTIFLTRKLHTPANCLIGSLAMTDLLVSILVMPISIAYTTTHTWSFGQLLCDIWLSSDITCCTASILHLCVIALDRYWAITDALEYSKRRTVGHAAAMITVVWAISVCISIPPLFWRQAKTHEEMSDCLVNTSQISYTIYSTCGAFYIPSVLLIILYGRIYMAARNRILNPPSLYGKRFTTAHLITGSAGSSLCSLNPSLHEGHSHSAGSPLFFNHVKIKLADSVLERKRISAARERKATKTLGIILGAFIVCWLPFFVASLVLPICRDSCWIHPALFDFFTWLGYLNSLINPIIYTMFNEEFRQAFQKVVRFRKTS
Procedure: 5-HT1D binding assays (agonist radioligand) were performed using bovine caudate membranes according to the methods of Heuring and Peroutka (J. Neurosci., 7: 894-903 (1987)). 5-HT1B (rat cerebral cortex) binding assays (agonist radioligand) were performed according to the method of Hoyer et. al. (Eur. J. Pharmacol., 118: 1-12 (1995)). For the purpose of result analysis, the specific ligand binding to the receptors is defined as the difference between the total binding and the nonspecific binding as determined in the presence of an excess of unlabelled ligand. The results are expressed as a percent of control specific binding obtained in the presence of the test compounds.

SMILES | metabolic stability in human liver microsomes ([1]; 60 min incubation, 10 μM) | Peak Area Ratio 0 min ([1]; +NADP+, 10 μM) | Peak Area Ratio 15 min ([1]; +NADP+, 10 μM) | Peak Area Ratio 30 min ([1]; +NADP+, 10 μM) | Peak Area Ratio 60 min ([1]; +NADP+, 10 μM) | Peak Area Ratio 0 min ([1]; −NADP+, 10 μM) | Peak Area Ratio 60 min ([1]; −NADP+, 10 μM) | IC50 [2] [nM] | e/n [2] | IC50 (5-HT1B) [nM] | IC50 [3] [nM] | IC50 (5-HT1D) [nM] | half-life at 10 μM ([1]; both sexes, pooled human liver microsomes, pH 7.4, human liver microsomes, with NADPH regenerating system, read-out: estimated half-life for disappearance from the microsomal reaction mixture) [h]
CN1CCC(c2c[nH]c3ccc(NC(=N)c4cccs4)cc23)C1 (single isomer, unassigned) [Compound 6b, N-(3-(1-Methylpyrrolidin-3-yl)-1H-indol-5-yl)thiophene-2-carboximidamide] | metabolically stable over 60 min of incubation | 20.6 | 20.5 | 21.4 | 20.5 | 20.2 | 20.6 | 205 | 100 | 705 | 20600 | 79 | 
CN1CCC(c2c[nH]c3ccc(NC(=N)c4cccs4)cc23)C1 (single isomer, unassigned) [Compound 6a, N-(3-(1-Methylpyrrolidin-3-yl)-1H-indol-5-yl)thiophene-2-carboximidamide] |  | 25.8 | 25.8 | 23.7 | 19.4 | 22.0 | 20.2 | 680 | 67 | 1400 | 45500 | 170 | 2.2
